Like-named read-outs stand apart in the source and are kept apart here.
Legend:
[1] = biological target: recombinant human Mcl-1 (residues 171-327) / Bim interaction (Homo sapiens (Human), UniProt Q07820); assay: biochemical; format: binding; settings: read-out: Mcl-1 HTRF IC50
[2] = test system: human multiple myeloma cell line, OPM-2; assay: Cell viability assay (OPM-2 10 FBS), CellTiter-Glo; format: cell-based
Outline: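 IC50 values come from 4-parameter logistic fits of luminescence signals reflecting cell viability. Treatment lasted 16 h at 37 °C in complete medium with 10% FBS, starting from 3000 cells/well.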

[3] = TR-FRET, Mcl-1(171-327) / biotin-Bim (51-76)
[4] = Homo sapiens, OPM-2, 16 h, read-out: OPM-2 10% FBS IC50 IP, OPM-2 cells, 10% FBS, 16 h, CellTiter-Glo
[5] = 0.1 nM Mcl-1(171-327), 0.05 nM biotin-Bim (51-76)
[6] = Homo sapiens, OPM-2, 16 h, read-out: OPM-2 10% FBS IC50 IP, OPM-2 cells, 10% FBS, 16 h incubation
[7] = read-out: OPM-2 10% FBS IC50 IP, OPM-2 cells, 10% FBS, 16 h, CellTiter-Glo

Sequence of recombinant human Mcl-1 (residues 171-327) / Bim interaction (Q07820 171-327): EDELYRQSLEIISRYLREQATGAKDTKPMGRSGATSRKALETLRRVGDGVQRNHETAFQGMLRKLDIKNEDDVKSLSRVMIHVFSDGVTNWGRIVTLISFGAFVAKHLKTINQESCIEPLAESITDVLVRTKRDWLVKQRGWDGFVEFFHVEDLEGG

Structure (SMILES)	IC50 [1, 3] [nM]	IC50 [2, 4] [nM]	IC50 [1, 5] [nM]	IC50 [2, 6] [nM]	also measured
COCC#C[C@@]1(OC)/C=C/C[C@H](C)[C@@H](C)S(=O)(=O)NC(=O)c2ccc3c(c2)N(C[C@@H]2CC[C@H]21)C[C@@]1(CCCc2cc(Cl)ccc21)CO3 [Example 100343, (1S,3′R,6′R,7′R,8′E,11′S,12′R)-6-chloro-7′-methoxy-7′-(3-methoxy-1-propyn-1-yl)-11′,12′-dimethyl-3,4-dihydro-2H,15′H-spiro[naphthalene-1,22′-[20]oxa[13]thia[1,14]diazatetracyclo [14.7.2.0~3,6~.0~19,24~]pentacosa[8,16,18,24]tetraen]-15′-one 13′,13′-dioxide]	2.51	617			
COCC[C@@H]1[C@@H](C)C/C=C/[C@@](CN2C[C@@H](C)N(C)[C@@H](C)C2)(OC)[C@@H]2CC[C@H]2CN2C[C@@]3(CCCc4cc(Cl)ccc43)COc3ccc(cc32)C(=O)NS1(=O)=O [Example 191, (1S,3′R,6′R,7′R,8′E,11′S,12′R)-6-chloro-7′-methoxy-12′-(2-methoxyethyl)-11′-methyl-7′-(((3R,5S)-3,4,5-trimethyl-1-piperazinyl)methyl)-3,4-dihydro-2H,15′H-spiro[naphthalene-1,22′-[20]oxa[13]thia[1,14]diazatetracyclo [14.7.2.0~3,6~.0~19,24~]pentacosa[8,16,18,24]tetrae11]-15′-one 13′,13′-dioxide]			0.096	42	
CO[C@]1(CCN(C)C)CCC[C@H](C)[C@@H](C)S(=O)(=O)NC(=O)c2ccc3c(c2)N(C[C@@H]2CC[C@H]21)C[C@@]1(CCCc2cc(Cl)ccc21)CO3 [Example 100472, (1S,3′R,6′R,7′S,11′S,12′R)-6-chloro-7′-(2-(dimethylamino)ethyl)-7′-methoxy-11′,12′-dimethyl-3,4-dihydro-2H,15′H-spiro[naphthalene-1,22′-[20]oxa[13]thia[1,14]diazatetracyclo [14.7.2.0~3,6~.0~19,24~]pentacosa[16,18,24]trien]-15′-one 13′,13′-dioxide]	0.651	357			
CO[C@]1(CN2CCC2)/C=C/C[C@H](C)[C@@H](C)S(=O)(=O)NC(=O)c2ccc3c(c2)N(C[C@@H]2CC[C@H]21)C[C@@]1(CCCc2cc(Cl)ccc21)CO3 [Example 76, (1S,3′R,6′R,7′R,8′E,11′S,12′R)-7′-(1-azetidinylmethyl)-6-chloro-7′-methoxy-11′,12′-dimethyl-3,4-dihydro-2H,15′H-spiro[naphthalene-1,22′-[20]oxa[13]thia[1,14]diazatetracyclo [14.7.2.0~3,6~.0~19,24~]pentacosa[8,16,18,24]tetraen]-15′-one 13′,13′-dioxide]			3.81	670	
CO[C@@]1(CN2CCC3(CC2)COC3)/C=C/C[C@H](C)[C@@H](C)S(=O)(=O)NC(=O)c2ccc3c(c2)N(C[C@@H]2CC[C@H]21)C[C@@]1(CCCc2cc(Cl)ccc21)CO3 [Example 267, (1S,3′R,6′R,7′S,8′E,11′S,12′R)-6-chloro-7′-methoxy-11′,12′-dimethyl-7′-(2-oxa-7-azaspiro[3.5]non-7-ylmethyl)-3,4-dihydro-2H,15′H-spiro[naphthalene-1,22′-[20]oxa[13]thia[1,14]diazatetracyclo [14.7.2.0~3,6~.0~19,24~]pentacosa[8,16,18,24]tetraen]-15′-one 13′,13′-dioxide]			0.297	250	
CO[C@@]1(C[C@@H](O)C(C)C)/C=C/C[C@H](C)[C@@H](C)S(=O)(=O)NC(=O)c2ccc3c(c2)N(C[C@@H]2CC[C@H]21)C[C@@]1(CCCc2cc(Cl)ccc21)CO3 (racemic) [Example 100326, (1S,3′R,6′R,7′S,8′E,11′S,12′R)-6-chloro-7′-((2R)-2-hydroxy-3-methylbutyl)-7′-methoxy-11′,12′-dimethyl-3,4-dihydro-2H,15′H-spiro[naphthalene-1,22′-[20]oxa[13]thia[1,14]diazatetracyclo [14.7.2.0~3,6~.0~19,24~]pentacosa[8,16,18,24]tetraen]-15′-one 13′,13′-dioxide]	0.615	334			
C[C@@H]1[C@@H](C)C/C=C/[C@@](O)(Cc2ccncn2)[C@@H]2CC[C@H]2CN2C[C@@]3(CCCc4cc(Cl)ccc43)COc3ccc(cc32)C(=O)NS1(=O)=O [Example 100152, (1S,3′R,6′R,7′S,8′E,11′S,12′R)-6-chloro-7′-hydroxy-11′,12′-dimethyl-7′-(4-pyrimidinylmethyl)-3,4-dihydro-2H,15′H-spiro[naphthalene-1,22′-[20]oxa[13]thia[1,14]diazatetracyclo [14.7.2.0~3,6~.0~19,24~]pentacosa[8,16,18,24]tetraen]-15′-one 13′,13′-dioxide]	0.449				IC50 [2, 7]: 377 nM
C[C@@H]1[C@@H](C)C/C=C/[C@@](O)(COCCN2CCOCC2)[C@@H]2CC[C@H]2CN2C[C@@]3(CCCc4cc(Cl)ccc43)COc3ccc(cc32)C(=O)NS1(=O)=O [Example 100355, (1S,3′R,6′R,7′S,8′E,11′S,12′R)-6-chloro-7′-hydroxy-11′,12′-dimethyl-7′-((2-(4-morpholinyl)ethoxy)methyl)-3,4-dihydro-2H,15′H-spiro[naphthalene-1,22′-[20]oxa[13]thia[1,14]diazatetracyclo [14.7.2.0~3,6~.0~19,24~]pentacosa[8,16,18,24]tetraen]-15′-one 13′,13′-dioxide]	0.535	776			
CO[C@]1(CN2CCN3C(=O)[C@H](C)OC[C@@H]3C2)/C=C/C[C@H](C)[C@@H](C)S(=O)(=O)NC(=O)c2ccc3c(c2)N(C[C@@H]2CC[C@H]21)C[C@@]1(CCCc2cc(Cl)ccc21)CO3 [Example 142, (1S,3′R,6′R,7′R,8′E,11′S,12′R)-6-chloro-7′-methoxy-11′,12′-dimethyl-7′-(((3S,9aS)-3-methyl-4-oxohexahydropyrazino[2,1-c][1,4]oxazin-8(1H)-yl)methyl)-3,4-dihydro-2H,15′H-spiro[naphthalene-1,22′-[20]oxa[13]thia[1,14]diazatetracyclo [14.7.2.0~3,6~.0~19,24~]pentacosa[8,16,18,24]tetraen]-15′-one 13′,13′-dioxide]			0.157	174	
CO[C@@]1(CN2CCN(C3COC3)CC2)/C=C/[C@H](C)[C@H](C)CS(=O)(=O)NC(=O)c2ccc3c(c2)N(C[C@@H]2CC[C@H]21)C[C@@]1(CCCc2cc(Cl)ccc21)CO3 [Example 158, (1S,3′R,6′R,7′S,8′E,10′S,11′S)-6-chloro-7′-methoxy-10′,11′-dimethyl-7′-((4-(3-oxetanyl)-1-piperazinyl)methyl)-3,4-dihydro-2H,15′H-spiro[naphthalene-1,22′-[20]oxa[13]thia[1,14]diazatetracyclo [14.7.2.0~3,6~.0~19,24~]pentacosa[8,16,18,24]tetraen]-15′-one 13′,13′-dioxide]			0.092	18	
CCN1CCN(C[C@@]2(OC)/C=C/C[C@H](C)[C@@H](C)S(=O)(=O)NC(=O)c3ccc4c(c3)N(C[C@@H]3CC[C@H]32)C[C@@]2(CCCc3cc(Cl)ccc32)CO4)CC1(C)C [Example 330, (1S,3′R,6′R,7′R,8′E,11′S,12′R)-6-chloro-7′-((4-ethyl-3,3-dimethyl-1-piperazinyl)methyl)-7′-methoxy-11′,12′-dimethyl-3,4-dihydro-2H,15′H-spiro[naphthalene-1,22′-[20]oxa[13]thia[1,14]diazatetracyclo [14.7.2.0~3,6~.0~19,24~]pentacosa[8,16,18,24]tetraen]-15′-one 13′,13′-dioxide]			0.425	278	
CO[C@@]1(C[C@@H](O)C2CC2)/C=C/C[C@H](C)[C@@H](C)S(=O)(=O)NC(=O)c2ccc3c(c2)N(C[C@@H]2CC[C@H]21)C[C@@]1(CCCc2cc(Cl)ccc21)CO3 (single isomer, unassigned) [Example 100461]	0.042				IC50 [2, 7]: 382 nM
CO[C@@]1(CN2CCN([C@@H]3CCOC3)CC2)/C=C/C[C@H](C)[C@@H](C)S(=O)(=O)NC(=O)c2ccc3c(c2)N(C[C@@H]2CC[C@H]21)C[C@@]1(CCCc2cc(Cl)ccc21)CO3 (single isomer, unassigned) [Example 286]			0.155		IC50 ([2]; read-out: OPM-2 10% FBS IC50 IP, OPM-2 cells, 10% FBS, 16 h incubation): 50 nM
C[C@@H]1[C@@H](C)C/C=C/[C@@](O)(C#CCCc2ccccn2)[C@@H]2CC[C@H]2CN2C[C@@]3(CCCc4cc(Cl)ccc43)COc3ccc(cc32)C(=O)NS1(=O)=O [Example 100440, (1S,3′R,6′R,7′S,8′E,11′S,12′R)-6-chloro-7′-hydroxy-11′,12′-dimethyl-7′-(4-(2-pyridinyl)-1-butyn-1-yl)-3,4-dihydro-2H,15′H-spiro[naphthalene-1,22′-[20]oxa[13]thia[1,14]diazatetracyclo [14.7.2.0~3,6~.0~19,24~]pentacosa[8,16,18,24]tetraen]-15′-one 13′,13′-dioxide]	0.398				IC50 [2, 7]: 354 nM
C[C@@H]1[C@@H](C)CCC[C@@](O)(Cc2ncccn2)[C@@H]2CC[C@H]2CN2C[C@@]3(CCCc4cc(Cl)ccc43)COc3ccc(cc32)C(=O)NS1(=O)=O [Example 100146, (1S,3′R,6′R,7′R,11′S,12′R)-6-chloro-7′-hydroxy-11′,12′-dimethyl-7′-(2-pyrimidinylmethyl)-3,4-dihydro-2H,15′H-spiro[naphthalene-1,22′-[20]oxa[13]thia[1,14]diazatetracyclo [14.7.2.0~3,6~.0~19,24~]pentacosa[16,18,24]trien]-15′-one 13′,13′-dioxide]	0.515	347			
C[C@@H]1[C@@H](C)C/C=C/[C@@](O)(c2ccc(F)cn2)[C@@H]2CC[C@H]2CN2C[C@@]3(CCCc4cc(Cl)ccc43)COc3ccc(cc32)C(=O)NS1(=O)=O (single isomer, unassigned) [Example 100402]	0.098	133			
